Laboratory results published in patent publication US20050020544A1, “Bicyclic CB2 cannabinoid receptor ligands” (priority 2002, published 2005).
pIC50: −log10 of the molar value. Read-outs that look alike come from different tables or passages of the source.

Key:
[1] = molecular target: T1, human CB1 receptor (Homo sapiens, UniProt P21554); test: biochemical; type: binding; details: displacement of [3H]CP55940, hCB1 HEK-293 membranes; read-out: CB1 IC50
T1 construct: purchased Perkin Elmer/NEN; host or cells: HEK-293 cells, stably transfected (membranes)
Experimental: (§1) In the present invention, binding affinity is represented by the IC50 value, namely the concentration of a test compound that will displace 50% of a radiolabeled agonist from the CB receptors. […] Preferably these ratios will be obtained for human CB1 and CB2 receptors. The selectivity toward CB2, denoted CB2/CB1 affinity, is calculated as the IC50 value obtained by the test compound for the displacement of the CB1 specific radioligand divided by the IC50 value obtained for the displacement of the CB2 specific radioligand, i.e. the IC50 CB1/IC50 CB2.
The CB1 binding assays were performed by testing the ability of the new compounds to displace [^3H]CP55940 from the CB1 receptor on membranes derived from hCB1 stably transfected HEK-293 cells (Perkin Elmer/NEN). Membranes were diluted in the assay buffer (50 mM Tris-HCl, 2.5 mM EDTA, 5 mM MgCl2, 1 mg/ml BSA, pH=7.4) to 500 μg protein/ml. 50 μl of diluted membranes (25 μg) were incubated with [^3H]CP55940 in the presence or absence of the bicyclic test compounds in a total volume of 0.5 ml. Tested compounds were dissolved in DMSO and diluted in the assay buffer to a final concentration of 0.1% solvent. Control samples were added with identical amount of vehicle. Non-specific binding was measured by the addition of 10 μM of WIN 55212-2. Following 1.5 hours incubation at 30° C. reactions were filtered through Whatman 934A/H filters (presoaked with 0.1% Polyethylenimine (PEI)).
(§2) Binding to CB1 is measured by competitive inhibition of [^3H]CP55940 in HEK-293 cells stably transfected with the human CB1 receptor gene. Binding to CB2 is measured by competitive inhibition of [^3H]WIN55212-2 in CHO cells stably transfected with the human CB2 receptor gene.

[2] = test system: IL-1β secretion from activated RAW 264.7 macrophages; test: Inhibition of IL-1β in LPS activated macrophages (ELISA); type: cell-based; details: Mus musculus; for inhibition at 10 µM: RAW264.7, 24 h, read-out: inhibition of IL-1β secretion
Experimental: The technique used to quantify the amount of a given protein in a liquid sample, either tissue culture supernatant or body fluid, is based on Enzyme Linked ImmunoSorbent Assay (ELISA) methodology. Either commercially available or established in house, the assay is based on the capture of the protein of interest by specific antibodies bound to the bottom of an ELISA plate well. […] Again the unbound material is washed away, the samples are then incubated with the appropriate substrate yielding a calorimetric reaction. The reaction is stopped and reading is performed in a spectrophotometer at the appropriate wavelength. Samples are tested at least in duplicate and the appropriate standard curve, consisting of serial dilutions of the recombinant target protein, is incorporated on each plate. Concentration of the protein in the sample is calculated from the standard curve.
RAW 264.7 macrophages, a mouse cell line (ATCC # TIB-71), were grown in Dulbecco's modified Eagle's medium (DMEM) with 4 mM L-glutamine adjusted to contain 1.5 g/L sodium bicarbonate, 4.5 g/L glucose, and 10% heat inactivated fetal bovine serum. Cells were grown in tissue culture flasks and seeded at appropriate density into 24 wells tissue culture plates. 0.5×10^6 Raw cells in one milliliter were stimulated with 2 μg/ml Lipopolysaccharide E. coli 055:B5 (DIFCO Laboratories). The mouse macrophages were pre-treated for one hour with controls or 10 μM of bicyclic CB2 ligands and later on activated with LPS. Dexamethasone was used as a positive control at 50 nM. Supernatant was collected 4 hours (for PGE2) and 24 hours (for IL-1β and TNF-α) after activation, and the levels of the inflammatory agent under study were determined by ELISA, as previously described. Inhibition was calculated versus vehicle treated cells.

[3] = molecular target: human CB2 receptor (Homo sapiens, UniProt P34972); test: biochemical; type: binding; parameters: purchased Perkin Elmer/NEN; host or cells: CHO cells, stably transfected (membranes); details: for CB2/CB1 affinity ratio: IC50 CB1/IC50 CB2; for pIC50: displacement of [3H]WIN 55212-2, hCB2 CHO membranes
Experimental: as §1
The affinities of the novel bicyclic analogs to the CB2 receptor were determined by their ability to displace [^3H]WIN 55212-2 from the receptor in membranes derived from hCB2 stably transfected CHO cells (Perkin Elmer/NEN). Membranes were diluted in assay buffer (10 mM HEPES, 1 mM MgCl2, 1 mM EDTA, 0.3 mg/ml BSA, pH=7.4) to 500 μg protein/ml. 50 μl of diluted membranes (25 μg) were incubated with 0.8 nM of [^3H]WIN 55212-2 in the presence or absence of several concentrations of the bicyclic test compounds in a total volume of 1 ml. Tested compounds were dissolved and diluted as previously described for the hCB1 assay. Non-specific binding was measured by the addition of 10 μM CP 55940. Following 40 minutes incubation at 30° C. reactions were filtered as previously described. Filters for all binding assays were counted in a β-counter and log of analog concentration versus % of binding was plotted. IC50 values were extrapolated from this plot.
as §2

[4] = test system: Female Balb/c mice
Experimental: The purpose of this study is to test in vivo the anti-inflammatory activity of the compounds in paw edema induced by injection of 1% carrageenan in the animal hind paw. Female Balb/c mice (20 g average body weight, Harlan, Israel) are anesthetized with a combination of xylazine and pentobarbitone diluted in sterile saline, 15 and 6 mg/kg i.p. respectively. Anesthetized mice are injected subcutaneously, in the subplantar region of one (right) paw with 0.05 ml of 1% w/v Carrageenan in sterile water. […] The test compounds, including known anti-inflammatory controls, are dissolved in CREMOPHOR EL®:ethanol and further diluted 1:20 or 1:50 in sterile saline prior to i.p. injection that takes place immediately before the carrageenan injection. Three hours after injection the animals are resedated following the previously described procedure. Paw thickness is measured using a dial thickness gauge (Spring-dial, constant low pressure gauge, Mitutoyo, TG/L-1, 0.01 mm) and paw volume is measured using a plethysmometer (model #7150, Ugo Basile, Italy). Paw Edema is expressed as the difference between the right treated and the left untreated paws of the same animal, either as Δ Paw Volume (ΔPV) in millimeters cube or as Δ Paw Thickness (ΔPT) in millimeters. Each group comprises at least 10 animals. […] At the end of the study, animals are euthanized with an i.p. injection of 100 mg/kg pentobarbitone.
The differences among various treatment groups are analyzed by analysis of variance (ANOVA) followed by post-hoc Fisher test. A value of p<0.05 is considered to be statistically significant.
For sake of comparison, known anti-inflammatory drugs such as Celecoxib and Dexamethasone yield respectively in the range of relevant doses 7% and 26% reduction in paw thickness at 0.1 mg/kg, 16% and 31% at 0.25 mg/kg and 24% and 33% at 0.5 mg/kg. […] It should be kept in mind that these commercially available drugs display serious side effects that prevent chronic uses without complementary protective medication.

[5] = test system: Adult female BALB/c mice; type: in vivo, mouse; details: i.p. twice
Experimental: Adult female BALB/c mice (20 g average body weight, Harlan, Israel) were sensitized on day 0 and day 1 by application of 30 μl of 0.15% Dinitrofluorobenzene (DNFB) diluted in acetone on the shaved skin of the abdomen. On day 6 the animals were challenged by application of 10 μl of DNFB in acetone on one ear. The contralateral ear was not challenged but received the application of 10 μl acetone. Test compounds were administered at increasing doses from 0 to 15 mg/kg i.p. twice, the first injection was immediately after DNFB challenge (on day 6) and the second injection was 16 hours post challenge (on day 7). Each treatment group comprised at least 7 animals. Dexamethasone (DXM) was used as positive control. Ear thickness was determined (in 0.01 mm units) 24 hours after challenge (and 6 hours after second treatment on day 7) using a dial thickness gauge (Mitutoyo, Japan).
Results are analyzed as ear thickness of DNFB treated over DNFB untreated contralateral ear. The impact of the test compound was further assessed by comparing its mean impact on the animals of the treatment group to the response generated by the appropriate vehicle only.

human CB2 receptor, sequence (P34972 whole entry): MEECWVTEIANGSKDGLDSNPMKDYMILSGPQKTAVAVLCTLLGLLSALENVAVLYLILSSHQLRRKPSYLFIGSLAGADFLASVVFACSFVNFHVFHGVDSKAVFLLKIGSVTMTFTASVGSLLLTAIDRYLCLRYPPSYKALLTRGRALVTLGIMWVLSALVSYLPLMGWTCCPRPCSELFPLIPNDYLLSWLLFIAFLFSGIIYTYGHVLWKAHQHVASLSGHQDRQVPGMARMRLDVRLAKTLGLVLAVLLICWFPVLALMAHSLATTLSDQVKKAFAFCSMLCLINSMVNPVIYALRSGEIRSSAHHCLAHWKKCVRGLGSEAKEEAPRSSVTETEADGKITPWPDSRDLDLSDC
T1 sequence (P21554 whole entry): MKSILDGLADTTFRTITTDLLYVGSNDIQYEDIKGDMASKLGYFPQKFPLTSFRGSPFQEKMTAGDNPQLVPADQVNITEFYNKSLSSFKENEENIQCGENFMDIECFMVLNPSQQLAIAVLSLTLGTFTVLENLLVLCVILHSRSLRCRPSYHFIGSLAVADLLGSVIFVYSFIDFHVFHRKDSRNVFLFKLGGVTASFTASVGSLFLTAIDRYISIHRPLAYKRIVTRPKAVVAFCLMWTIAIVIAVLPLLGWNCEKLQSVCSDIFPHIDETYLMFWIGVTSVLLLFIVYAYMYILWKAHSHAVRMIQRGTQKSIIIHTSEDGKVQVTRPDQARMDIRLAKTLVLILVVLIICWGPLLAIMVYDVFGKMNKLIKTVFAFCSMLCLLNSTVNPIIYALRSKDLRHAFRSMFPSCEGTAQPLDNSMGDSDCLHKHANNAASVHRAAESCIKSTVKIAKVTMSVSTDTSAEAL

In the case of `CCCCCCC(C)(C)c1cc(O)c(C2CC(O)C3CC2C3(C)C)c(O)c1` (single isomer, unassigned; (-)) [Compound C, (−)-5-(1,1-Dimethyl-heptyl)-2-(4-hydroxy-6,6-dimethylbicyclo[3.1.1]hept-2-yl)-benzene-1,3-diol], the pIC50 [1] was 7.51, the inhibition at 10 µM [2] was 26% and the CB2/CB1 affinity ratio [3] was 9. It also gave a pIC50 [3] of 8.46.

`CCCCCCC(C)(C)c1cc(OC)c(C2CC(=O)C3CC2C3(C)C)c(OC)c1` (single isomer, unassigned; (-)) [Compound B, (−)-4-[4-(1,1-Dimethyl-heptyl)-2,6-dimethoxy-phenyl]-6,6-dimethyl-bicyclo[3.1.1]heptan-2-one] was tested, and the pIC50 [1] was 5.55, the inhibition at 10 µM [2] was 34% and the CB2/CB1 affinity ratio [3] was 62. The pIC50 [3] was 7.35.

In the case of `C[C@@H]1C[C@H]2[C@@H]3CCC4=CC(=O)C=C[C@]4(C)[C@@]3(F)[C@@H](O)C[C@]2(C)[C@@]1(O)C(=O)CO` [Dexamethasone, reference compound], the “reduction in paw thickness” value ([4]; 0.1 mg/kg) was 26%, the “reduction in paw thickness” value ([4]; 0.25 mg/kg) was 31% and the “reduction in paw thickness” value ([4]; 0.5 mg/kg) was 33%. The inhibition at 0.05 µM ([2]; RAW264.7, positive control at 50 nM, 24 hours after LPS activation) was 97%, the “calculated IC50 reduction in ear thickness” value [5] was 3.2 mg/kg and the “maximal inhibition (reduction in ear thickness)” value ([5]; doses 0 to 15 mg/kg, 24 hours after challenge) was “around 80%”.

For `CCCCCCC(C)(C)c1cc(O)c([C@H]2C/C(=N/O)[C@H]3C[C@@H]2C3(C)C)c(O)c1` [Compound D], the pIC50 [1] was 7.03, the inhibition at 10 µM [2] was 67% and the CB2/CB1 affinity ratio [3] was 27. For the same molecule, the pIC50 [3] was 8.47.
